Measured values from patent publication US9353094B2, “Substituted quinoxalines as kinase inhibitors” (BOARD OF REGENTS OF THE UNIVERSITY OF NEBRASKA, priority 2010, dated 2016).

What was measured:
[1] = test system: human osteosarcoma U2OS tumor cell line; test: Cell growth inhibition assay (alamar blue); assay type: cell-based; settings: 72 h
Method: (§1) The compounds were screened in a growth inhibition assay at 20 μM over a 72 h period in a panel of cancer cell lines (lung-A549; pancreatic-Aspc1; colon-HT29; breast-MDAMB231; prostate-PC3; ovarian-SKOV3 and bone-U2OS) and the results are summarized in Table 2. […] This size effect was also observed with the urea compounds from the secondary amine (6j vs. 6l and 6k vs. 6m).
(§2) Cell Growth Inhibition Assay. Human lung A549, human pancreatic AsPC1, human colorectal HT-29, human breast MDA-MB-231, human prostate PC3, human ovarian SKOV3, and human osteosarcoma U2OS tumor cell lines were cultured in basal media containing 10% FBS and maintained in a 37° C. incubator with 5% CO2. All compounds were screened in 96 well microtiter plate format. In general, each cell line was plated at optimal assay density in 95 μl of propagation media in 96 well plates and incubated overnight. The next day, a standard alamar blue assay was performed (see below) on representative wells of each cell line for a Tz calculation. Subsequently, cells were treated in duplicate with a 5 μl volume of either vehicle only, positive controls etoposide and taxol, or test compounds at 20 μM (highest soluble compound concentration). The treated cells were incubated for 72 h and then assayed for growth by alamar blue assay. Briefly, 10 μl of reagent was added to each well and the plates returned to 37° C. After 3 h, fluorescence at 544ex/590em was measured using a SpectraMax M5 (Molecular Devices) plate reader. Growth is represented as a percentage of the control cells that were treated with vehicle only and % growth inhibition was determined using the NCI algorithm: Tz=number of untreated cells at zero time, C=Number of control cells at 72 h time, and T=number of compound treated cells at 72 h time; 100*([T−Tz]/[C−Tz]).

[2] = test system: human pancreatic AsPC1 tumor cell line; test: Cell growth inhibition assay (alamar blue); assay type: cell-based; settings: AsPC1, 20 μM, 72 h
Method: as §1, §2

[3] = test system: human ovarian SKOV3 tumor cell line; test: Cell growth inhibition assay (alamar blue); assay type: cell-based; settings: SKOV3, 20 μM, 72 h
Method: as §1, §2

[4] = test system: human breast MDA-MB-231 tumor cell line; test: Cell growth inhibition assay (alamar blue); assay type: cell-based; settings: MDA-MB-231, 20 μM, 72 h
Method: as §1, §2

[5] = test system: human colorectal HT-29 tumor cell line; test: Cell growth inhibition assay (alamar blue); assay type: cell-based; settings: HT29, 20 μM, 72 h
Method: as §1, §2

[6] = test system: human lung A549 tumor cell line; test: Cell growth inhibition assay (alamar blue); assay type: cell-based; settings: A549, 20 μM, 72 h
Method: as §1, §2

[7] = test system: human prostate PC3 tumor cell line; test: Cell growth inhibition assay (alamar blue); assay type: cell-based; settings: PC3, 20 μM, 72 h
Method: as §1, §2

[8] = test system: panel of cancer cell lines; test: Growth inhibition assay, whole panel; assay type: cell-based, human; settings: 20 μM, 72 h
Method: as §1, §2

| SMILES | % Growth inhibition at 20 μM [1] | % Growth inhibition at 20 μM [2] | % Growth inhibition at 20 μM [3] | % Growth inhibition at 20 μM [4] | % Growth inhibition at 20 μM [5] | % Growth inhibition at 20 μM [6] | % Growth inhibition at 20 μM [7] | growth inhibition of the various cancer cell lines (in words) [8] |
| --- | --- | --- | --- | --- | --- | --- | --- | --- |
| S=C(Nc1ccccc1)Nc1ccc2nc(-c3ccco3)c(-c3ccco3)nc2c1 [6a] | 21.4 ± 8.4% | Inactive | Inactive | 19.1 ± 12.5% | 26.1 ± 15.0% | 18.0 ± 0.1% | 56.8 ± 1.4% | active |
| O=[N+]([O-])c1ccc(NC(=S)Nc2ccc3nc(-c4ccco4)c(-c4ccco4)nc3c2)cc1 [6d] | 32.2 ± 0.1% | Inactive | Inactive | 9.0 ± 4.7% | 42.0 ± 1.9% | 19.2 ± 8.9% | 43.4 ± 9.3% | active |
| O=C(Nc1ccc2nc(-c3ccco3)c(-c3ccco3)nc2c1)N1CCCC1 [6h] | 46.5 ± 4.4% | 11.6 ± 4.2% | 16.9 ± 4.9% | 18.2 ± 7.0% | 16.7 ± 3.7% | 23.3 ± 2.9% | 53.1 ± 9.9% | active |
| O=C(Nc1ccc2nc(-c3ccco3)c(-c3ccco3)nc2c1)N1CCC(Cc2ccccc2)CC1 [6k] | 80.3 ± 2.4% | >100% | 47.6 ± 2.5% | 90.8 ± 4.5% | 55.2 ± 4.1% | 93.1 ± 7.8% | >100% | active |
| O=C(Nc1ccc2nc(-c3ccco3)c(-c3ccco3)nc2c1)N1CCOCC1 [6m] | Inactive | Inactive | Inactive | 10.9 ± 5.0% | 19.4 ± 3.6% | 39.7 ± 12.8% | 48.9 ± 7.5% | active |
